Experimental data published in PMC10968976, “Targeting CDK9 in Cancer: An Integrated Approach of Combining In Silico Screening with Experimental Validation for Novel Degraders” (Current Issues in Molecular Biology, 2024).
Like-named read-outs stand apart in the source and are kept apart here.

Legend:
MIA-PaCa-2 cells = assay: Cell viability (cell-titer-glo), MIA-PaCa-2; format: cell-based; details: MIA-PaCa 2 cell line, 48 to 72 h, read-out: Estimated EC50
Description: (§1) The cell lines used in this study were purchased from ATCC (https://www.atcc.org, accessed on 18 December 2023) and maintained under standard conditions at 37 °C with a 5% CO2 atmosphere. NCI-H-358 cells were cultivated in 1X RPMI 1640 medium, while MIA-PaCa2 cells were cultured using 1X DMEM. Both culture media were supplemented with 10% fetal bovine serum and 1X Penicillin/Streptomycin (Gibco). For culturing the Melma-3M cells, IMDM media fortified with 20% fetal bovine serum and 1X Penicillin/Streptomycin was used. […]
(§2) Briefly, for cell viability experiments, after splitting, cells from each respective cell line were plated onto 96-well plates (MSP, Cat # CT-229185) at a density of about 1 × 10^4 cells/mL and 200 µL per well using the appropriate cell culture media after about 24 h at 37 °C, the cell media in each 96-well plate were replaced with media containing the various test compounds at varying concentrations. […] Each plate was gently mixed for ca. 10 min at room temperature and then transferred to a plate reader (Bio-Tek, Synergy HTX, Winooski, VT, USA, multimode reader) for chemiluminescence measurement as a proportional indicator of cell viability.
(§3) TB003 and TB008 have also been evaluated for cell growth inhibition and killing using two cell lines, NCI-H358, a non-small cell lung carcinoma-derived cell line, and MIA-PaCa-2, a pancreatic carcinoma-derived cell line. […]

NCI-H358 cells = assay: Cell viability (cell-titer-glo), NCI-H358; format: cell-based; details: Homo sapiens, NIH H-358 cell line, 48 to 72 h, read-out: Estimated EC50
Description: as §1, §2, §3

Row | SMILES | EC50 (MIA-PaCa-2 cells) | EC50 (MIA-PaCa-2 cells; Homo sapiens) | EC50 (NCI-H358 cells)
1 | O=C1[O][Pt]2([NH][C@@H]3CCCC[C@H]3[NH]2)[O]C1=O [Oxaliplatin, oxaliplatin] | 100 µM | – | –
2 | CC(=O)O[C@H]1C(=O)[C@@]2(C)[C@H]([C@H](OC(=O)c3ccccc3)[C@]3(O)C[C@H](OC(=O)[C@H](O)[C@@H](NC(=O)c4ccccc4)c4ccccc4)C(C)=C1C3(C)C)[C@]1(OC(C)=O)CO[C@@H]1C[C@@H]2O [Paclitaxel, paclitaxel] | – | 10 µM | 75 µM
